The results in this text go back to patent publication US8802132B2, “Anti-microbial tissue paper and process to manufacture same” (Cascades Canada ULC, priority 2010, dated 2014).

A short description of data set [1]: Benzalkonium chloride release from wetted paper, lab blender extraction method. It counts as physicochemical. Conditions: hand towel made of recycled pulp; cationizing agent about 1.2 wt % (12 kg/T); benzalkonium chloride about 1 wt %. An excerpt: As mentioned above, the cationizing agent at least partially neutralizes the paper anionic charges. Thereby, a portion of the antimicrobial agent, which can also be cationic, is not retained on the tissue paper when the latter is wetted and is thereby released. In an embodiment, the tissue paper has a release rate between approximately 0.01 wt % and 0.6 wt % when wetted. In an alternative embodiment, the tissue paper has a release rate between approximately 0.05 wt % and 0.2 wt % when wetted. For example, a tissue paper containing about 0.3 wt % of antimicrobial agent can release about 0.1 wt % of antimicrobial agent when wetted. The antimicrobial agent released from the tissue paper is measured relatively to the original, substantially dry tissue paper weight including the cationizing and antimicrobial agents. The antimicrobial agent released from the tissue paper is measured in a solution, such as water, following extraction. For the release rates mentioned in the application, the extraction is carried out by the lab blender method described below. The antimicrobial agent in the solution is measured by a method such as and without being limitative biphasic titration or high performance liquid chromatography (HPLC).
The amount of antimicrobial agent released will be highly dependent on the method used to retrieve it from the paper. […]

Data set [2] in a line: Charge density of cationizing agents, antimicrobial agent and fibres. It counts as physicochemical.

`CCCCCCCCCCCCCCCC[N+](C)(C)C.[Cl-]` [Cetyltrimethylammonium chloride, cetyltrimethylammonium chloride]: the Benzalkonium chloride released in data set [1] was 0.23 % (w/w). In addition, the “Charge density” value in data set [2] (cationic agent of Table 3) came out at 3.76 eq/kg.

Consider “benzalkonium chloride [Antimicrobial agent]”, for which the Charge density result in data set [2] (Table 4, recycled deinked pulp (DIP) hand towel) is on record as “+2.9 equiv/kg”; in data set [2] (Table 5, virgin bleached Kraft hand towel) it was “+2.9 equiv/kg”.
